What all share (type): in vivo
Assay [1] relates to Mythimna separata. Briefly: Indoor bioactivity test against Mythimna separata (leaf dip). The following applies: foliar, 3rd day after treatment. An excerpt:
The leaf dip method was used to assay the insecticidal activity of compounds to strains of Mythimna sepatata. Cut above ground part of fresh maize seedlings, about 10 cm. Dip the maize seedlings into the solution prepared with compound of this invention for 10 seconds and dry them in a cool environment. Then cut the dry maize seedlings into 3˜5 cm leaf sections and put 3 leaf sections into each petri dish. Put ten of 4th-instar larvae of Mythimna separatas into each dish, which was repeated by 3 times. Then the dishes were placed in an illumination incubator and incubated at 25° C. in the dark. Symptoms were investigated on the 1st, 2nd and 3rd day after treatment, and the mortality was calculated.

The subject of assay [2] is Spodoptera exigua Hiibner. Briefly: Indoor bioactivity test against Spodoptera exigua Hiibner (leaf dip). The following applies: foliar, 3rd day after treatment. As to the method: (§1) The leaf dip method was used to assay the insecticidal activity of compounds to strains of Spodoptera exigua Hiibner. Dip the leaf disc into the solution prepared with compound of this invention for 10 seconds, and dry them in a cool environment. Then place them in Petri dish with 4 discs per dish. Put the filter paper into the Petri dish to moisturize it. Put 10 of Spodoptera exigua Hiibners into each dish, which was repeated by 3 times. The dishes were placed in an illumination incubator and incubated at 25° C. with 14 hL: 10 hD illumination. The number of Spodoptera exigua Hiibner death was investigated on the 1st, 2nd and 3rd day after treatment, and the mortality was calculated.

In assay [3] the test system is Plutella xylostella. Description: Indoor bioactivity test against Plutella xylostella (leaf dip). Particulars: foliar; for mortality at 0.4 ppm / mortality at 1 ppm: 3rd day after treatment. How it is done:
as §1, with “Plutella xylostella.” for “Spodoptera exigua Hiibner.”, “Plutella xylostella” for “Spodoptera exigua Hiibners”, “Plutella xylostella” for “Spodoptera exigua Hiibner”
According to the above method, compound 4 and KC1 were selected and parallelly tested against Plutella xylostella to compare their insecticidal activity.

The subject of assay [4] is Spodoptera litura. Briefly: Indoor bioactivity test against Spodoptera litura (leaf dip). Particulars: foliar. As to the method:
as §1, with “litura.” for “exigua Hiibner.”, “litura” for “exigua Hiibners”, “litura” for “exigua Hiibner”
According to the above method, compound 4, 23 and KC1 were selected and parallelly tested against Spodoptera litura to compare the insecticidal activity.

Assay [5] deals with Chilo suppressalis. Briefly: Indoor bioactivity test against Chilo suppressalis (rice stem dip). How it is done:
The leaf dip method was used to assay the insecticidal activity of compounds to strains of Chilo suppressalis. The rice was cultivated in a plastic pot with a diameter of 9 cm and a height of 10 cm. When the rice grew about 25 cm, the aerial part of robust and consistent rice seedlings were selectively cut. Their leaves were removed and their stems of about 8 cm were kept for use. Pour the solution prepared with compound of this invention into the Petri dish (about 40 mL) and immerse the rice stems into the solution for 10 seconds. Take rice stems out and dry them in a cool environment. Put a wet cotton ball at the bottom of finger-like glass tube and 5 rice stems in each tube. Put 10 of 3rd-instar larvae of Chilo suppressa into each tube, which was repeated by 3 times. Seal the tubes with black cotton cloth and tighten them with rubber band. The tubes were placed in a illumination incubator at 28° C. and incubated in the dark. The number of alive Chilo suppressalis and the total number were investigated 3 days after treatment. The mortality was calculated.
According to the above method, Compound 23 and KC2 were selected and parallelly tested against Chilo suppressalis.

Assay [6] concerns soybean thrips. Description: Biological activity on soybean thrips in greenhouse (foliar spray). The following applies: for mortality at 10 ppm / mortality at 50 ppm: Thrips, foliar; for No. of thrips 1 d / No. of thrips 6 d: foliar spray, 5% SL. How it is done:
Test system: naturally occurring thrips population on soybeans planted in greenhouse. The basic number of active thripses were more than 100 thripses per trifoliate leaf. Under the same conditions, the sensitivity of the thrips population to Spinetoram (dose: 50 mg/L) is 96.55% mortality on the 6th day after treatment.
The size of the plot: 10 m^2, no repetition.
Test formulation: each compound was made into 5% SL (compound 5%+emulsifier 5%+solvent to make up 100%).
(1) Spraying time: both adult and larva thripses were in the active period. The number of spray: 1 time.
(2) Standard for water usage: when dose was in mg/kg, the upper leaves were wet and water began to drop therefrom.
(3) Survey standard: count three single leaves as one leaf. Three leaves were randomly selected and investigated for the number of adult and larva thripses on them.
[…] 2 surveys were conducted.

Setting [7] is: 3rd day after treatment, read-out: mortality of Spodoptera litura.
[8] abbreviates: 3rd day after treatment, read-out: mortality of Chilo suppressalis.
Setting [9] is: 24 h, 1 d, read-out: Mortality (%) 1 d.
[10] abbreviates: 48 h, 2 d, read-out: Mortality (%) 2 d.
Setting [11] is: 72 h, 3 d, read-out: Mortality (%) 3 d.
Setting [12] is: 24 h, read-out: Mortality % 1 d.
The mark [13] stands for this setting: 144 h, read-out: Mortality % 6 d.

Where two headings read alike, the source gives them in different places. Some results are limits rather than exact numbers.

`O=C(Nc1c(Br)cc(C(F)(C(F)(F)F)C(F)(F)F)cc1C(F)(F)F)c1cccc(N(CC2CC2)C(=O)c2ccc(F)cc2)c1F` [Compound 62, N-(2-bromo-4-(perfluoropropan-2-yl)-6-(trifluoromethyl)phenyl)-3-(N-(cyclopropylmethyl)-4-fluorobenzamido)-2-fluorobenzamide]: the mortality (as a rule, the share of the test organisms that died) at 1 ppm was at least 90% in assay [1] and 90% in assay [2]. Also, the mortality at 0.4 ppm in assay [3] and in assay [4] (setting [7]) was at least 90% each time. The mortality at 5 ppm in assay [5] (setting [8]) is at least 90%.

With `O=C(Nc1c(Br)cc(C(F)(C(F)(F)F)C(F)(F)F)cc1C(F)(F)F)c1cccc(N(CC2CC2)C(=O)c2ccc(C(F)(F)F)cc2)c1F` [Compound 37, N-(2-bromo-4-(perfluoropropan-2-yl)-6-(trifluoromethyl)phenyl)-3-(N-(cyclopropylmethyl)-4-(trifluoromethyl)benzamido)-2-fluorobenzamide], the mortality at 1 ppm is at least 90% in assay [1], 90% in assay [2] and at least 90% in assay [3]. Besides, in assay [4] (setting [7]), the mortality at 0.4 ppm was at least 90%. In addition, the mortality at 5 ppm in assay [5] (setting [8]) is at least 90%.

As to `N#Cc1ccc(C(=O)N(CC2CC2)c2cccc(C(=O)Nc3c(Br)cc(C(F)(C(F)(F)F)C(F)(F)F)cc3C(F)(F)F)c2F)cc1` [Compound 23, N-(2-bromo-4-(perfluoropropan-2-yl)-6-(trifluoromethyl)phenyl)-3-(4-cyano-N-(cyclopropylmethyl)benzamido)-2-fluorobenzamide], the mortality at 1 ppm in assay [1] is at least 90%; in assay [2] it was 90%; in assay [4] (setting [9]), 93.3%; in assay [4] (setting [10]), 100%; in assay [4] (setting [11]) it was 100%; in assay [5] (72 h, 1 ppm, 3d), 93.3%. The mortality at 0.4 ppm in assay [3] is at least 90%; in assay [4] (setting [7]) it was at least 90%; in assay [4] (setting [9]) it was 40%; in assay [4] (setting [10]), 46.7%; in assay [4] (setting [11]), 60%; in assay [5] (72 h, 0.4 ppm, 3d), 53.3%. Moreover, the mortality at 5 ppm is at least 90% in assay [5] (setting [8]) and 100% in assay [5] (72 h, 3d, read-out: Mortality (%, 3d) 5 ppm). Further, the mortality at 2 ppm in assay [5] (72 h, 2 ppm, 3d) came out at 100%.

As to `CS(=O)(=O)c1ccc(C(=O)N(CC2CC2)c2cccc(C(=O)Nc3c(Br)cc(C(F)(C(F)(F)F)C(F)(F)F)cc3C(F)(F)F)c2F)cc1` [Compound 57, N-(2-bromo-4-(perfluoropropan-2-yl)-6-(trifluoromethyl)phenyl)-3-(N-(cyclopropylmethyl)-4-(methylsulfonyl)benzamido)-2-fluorobenzamide], the values for the mortality at 1 ppm in assay [1], in assay [2] and in assay [3] were at least 90%, 90% and at least 90%, respectively. The same compound came in with a mortality at 10 ppm in assay [4] (3rd day after treatment) of at least 90%.

In the case of `CC(N(C(=O)c1ccc(C#N)cc1)c1cccc(C(=O)Nc2c(Br)cc(C(F)(C(F)(F)F)C(F)(F)F)cc2C(F)(F)F)c1F)C1(Cl)CC1` (stereo not shown) [Compound 75, N-(2-bromo-4-(perfluoropropan-2-yl)-6-(trifluoromethyl)phenyl)-3-(N-(1-(1-chlorocyclopropyl)ethyl)-4-cyanobenzamido)-2-fluorobenzamide], the mortality at 1 ppm in assay [1] and in assay [3] was at least 90% throughout. The mortality at 10 ppm in assay [2] and in assay [4] (3rd day after treatment) was at least 90% throughout.

In the case of `O=C(Nc1c(Br)cc(C(F)(C(F)(F)F)C(F)(F)F)cc1C(F)(F)F)c1cccc(N(CC2CC2)C(=O)c2ccc(OC(F)(F)F)cc2)c1F` [Compound 60, N-(2-bromo-4-(perfluoropropan-2-yl)-6-(trifluoromethyl)phenyl)-3-(N-(cyclopropylmethyl)-4-(trifluoromethoxy)benzamido)-2-fluorobenzamide], the mortality at 1 ppm in assay [1] and in assay [3] was at least 90% in each case. The same compound gave a mortality at 10 ppm in assay [2] of at least 90%. In assay [4] (setting [7]), the mortality at 0.4 ppm was at least 90%.

For `O=C(Nc1c(Br)cc(C(F)(C(F)(F)F)C(F)(F)F)cc1C(F)(F)F)c1cccc(N(CC2CC2)C(=O)c2ccc(Cl)cc2)c1F` [Compound 41, N-(2-bromo-4-(perfluoropropan-2-yl)-6-(trifluoromethyl)phenyl)-3-(4-chloro-N-(cyclopropylmethyl)benzamido)-2-fluorobenzamide], the mortality at 1 ppm in assay [1] is at least 90%; in assay [2] it was 90%. In addition, the mortality at 0.4 ppm in assay [3] and in assay [4] (setting [7]) was at least 90% throughout. For the same compound, in assay [5] (setting [8]), the mortality at 5 ppm was at least 90%.

For `O=C(Nc1c(Br)cc(C(F)(C(F)(F)F)C(F)(F)F)cc1C(F)(F)F)c1cccc(N(CC2CC2)C(=O)c2ccccc2)c1F` [Compound 4, N-(2-bromo-4-(perfluoropropan-2-yl)-6-(trifluoromethyl)phenyl)-3-(N-(cyclopropylmethyl)benzamido)-2-fluorobenzamide], the mortality at 1 ppm was at least 90% in assay [1]; 90% in assay [2]; 73.3% in assay [4] (setting [9]); 73.3% in assay [4] (setting [10]); 73.3% in assay [4] (setting [11]). Besides, the mortality at 0.4 ppm in assay [3] is at least 90%; in assay [4] (setting [9]) it was 20%; in assay [4] (setting [10]) it was 26.7%; in assay [4] (setting [11]), 26.7%. Also, the mortality at 0.04 ppm in assay [3] (setting [9]) amounted to 30%; in assay [3] (setting [10]), 80%; in assay [3] (setting [11]) it was 100%. Besides, the mortality at 10 ppm in assay [4] (3rd day after treatment) is at least 90%; in assay [6] (setting [12]), 92.4%; in assay [6] (setting [13]) it was 98.3%. Further, the mortality at 5 ppm in assay [5] (setting [8]) was at least 90%. Further, the figures for the mortality at 50 ppm in assay [6] (setting [12]) and in assay [6] (setting [13]) were 97.7% and 94.8%, respectively. The “No. of thrips 1 d” value in assay [6] (dose 10 ppm) was found to be 20; in assay [6] (dose 50 ppm), 6. Further, the “No. of thrips 6 d” value in assay [6] (dose 10 ppm) is 2; in assay [6] (dose 50 ppm), 6.

The values above are taken from US11540516B2, “M-diamide compound and preparation method therefor and use thereof” (priority 2018, dated 2023).
